From patent US9556143B2, “Metalloenzyme inhibitor compounds” (Viamet Pharmaceuticals, Inc., priority 2011, dated 2017)

What follows are compounds tested on Puccinia recondita tritici = Puccinia triticina (PUCCRT) (assay: Fungicidal activity vs. wheat leaf rust). Conditions: % disease control @ 50 ppm, wheat seedlings sprayed, inoculated the following day, severity evaluated 7-9 days later, read-out: Puccinia Rating.
Type: in vivo, Puccinia recondita tritici on wheat (variety Yuma)
Text: D. Evaluation of Fungicidal Activity Vs. Leaf Rust (Causal Agent Puccinia recondita tritici=Puccinia triticina; Bayer code PUCCRT). […] Each pot contained 3-8 seedlings. These plants were sprayed until wet with the formulated test compounds. The compounds were formulated at 50 ppm in 10 vol. % acetone plus 90 vol. % Triton X water (deionized water 99.99 wt %+0.01 wt % Triton X100), giving a “formulated test compound.” Formulated test compounds were applied to plants using a turn table sprayer fitted with two opposing air atomization nozzles which delivered approximately 1500 L/ha of spray volume. On the following day, the leaves were inoculated with an aqueous spore suspension of Puccinia recondita tritici and the plants were kept in high humidity overnight to permit spores to germinate and infect the leaf. The plants were then transferred to a greenhouse until disease developed on untreated control plants. Disease severity was evaluated 7-9 days later, depending on the speed of disease development. In each case of Table 3, the Puccinia rating scale is as follows: […]

Row | SMILES | pest or weed control at 50 ppm [%]
1 | CCOC/C=C/c1ccc(C(F)(F)C(O)(Cn2cnnn2)c2ccc(F)cc2F)nc1 (stereo not shown) [Compound 51, (E)-2-(2,4-Difluorophenyl)-1-(5-(3-ethoxyprop-1-en-1-yl)pyridin-2-yl)-1,1-difluoro-3-(1H-tetrazol-1-yl)propan-2-ol] | < 40
2 | N#Cc1ccc(SCc2ccc(C(F)(F)C(O)(Cn3cnnn3)c3ccc(F)cc3F)nc2)c(F)c1 (stereo not shown) [Compound 90, 4-(((6-(2-(2,4-difluorophenyl)-1,1-difluoro-2-hydroxy-3-(1H-tetrazol-1-yl)propyl)pyridin-3-yl)methyl)thio)-3-fluorobenzonitrile] | 40 to 59
3 | OC(Cn1cnnn1)(c1ccc(F)cc1F)C(F)(F)c1ccc(COC(F)F)cn1 (stereo not shown) [Compound 92, 1-(5-((difluoromethoxy)methyl)pyridin-2-yl)-2-(2,4-difluorophenyl)-1,1-difluoro-3-(1H-tetrazol-1-yl)propan-2-ol] | 80 to 100
4 | N#Cc1ccc(-c2ccc(C(F)(F)C(O)(Cn3cnnn3)c3ccc(F)cc3F)nc2)nc1 (stereo not shown) [Compound 95, 6′-(2-(2,4-difluorophenyl)-1,1-difluoro-2-hydroxy-3-(1H-tetrazol-1-yl)propyl)-[2,3′-bipyridin]-5-carbonitrile] | 80 to 100
5 | Cc1ccc(C(F)(F)C(O)(Cn2cnnn2)c2ccc(F)cc2F)nc1 (stereo not shown) [Compound 25, 2-(2,4-Difluorophenyl)-1,1-difluoro-1-(5-methylpyridin-2-yl)-3-(1H-tetrazol-1-yl)propan-2-ol] | 80 to 100
6 | OC(Cn1cnnn1)(c1ccc(F)cc1F)C(F)(F)c1ccc(-c2ccc(C(F)F)s2)cn1 (stereo not shown) [Compound 33, 1-(5-(5-(Difluoromethyl)thiophen-2-yl)pyridin-2-yl)-2-(2,4-difluorophenyl)-1,1-difluoro-3-(1H-tetrazol-1-yl)propan-2-ol] | 80 to 100
7 | N#Cc1ccc(OCc2ccc(C(F)(F)C(O)(Cn3cnnn3)c3ccc(F)cc3F)nc2)cc1 (stereo not shown) [Compound 79, 4-((6-(2-(2,4-Difluorophenyl)-1,1-difluoro-2-hydroxy-3-(1H-tetrazol-1-yl)propyl)pyridin-3-yl)methoxy)benzonitrile] | 80 to 100
8 | N#Cc1cccc(OCc2ccc(C(F)(F)C(O)(Cn3cnnn3)c3ccc(F)cc3F)nc2)c1F (stereo not shown) [Compound 89, 3-((6-(2-(2,4-difluorophenyl)-1,1-difluoro-2-hydroxy-3-(1H-tetrazol-1-yl)propyl)pyridin-3-yl)methoxy)-2-fluorobenzonitrile] | 80 to 100
9 | OC(Cn1cnnn1)(c1ccc(F)cc1F)C(F)(F)c1ccc(CC(F)(F)F)cn1 (stereo not shown) [Compound 17, 2-(2,4-Difluorophenyl)-1,1-difluoro-3-(1H-tetrazol-1-yl)-1-(5-(2,2,2-trifluoroethyl)pyridin-2-yl)propan-2-ol] | 80 to 100
10 | OC(Cn1cnnn1)(c1ccc(F)cc1F)C(F)(F)c1ccc(Cc2ccc(Cl)cc2)cn1 (stereo not shown) [Compound 77, 1-(5-(4-Chlorobenzyl)pyridin-2-yl)-2-(2,4-difluorophenyl)-1,1-difluoro-3-(1H-tetrazol-1-yl)propan-2-ol] | 80 to 100
11 | OC(Cn1cnnn1)(c1ccc(F)cc1F)C(F)(F)c1ccc(-c2ccc(C(F)(F)F)cn2)cn1 (stereo not shown) [Compound 94, 2-(2,4-difluorophenyl)-1,1-difluoro-3-(1H-tetrazol-1-yl)-1-(5-(trifluoromethyl)-[2,3′-bipyridin]-6′-yl)propan-2-ol] | 80 to 100
12 | OC(Cn1cnnn1)(c1ccc(F)cc1F)C(F)(F)c1ccc(Cc2ccc(OC(F)(F)F)cc2)cn1 (stereo not shown) [Compound 76, 2-(2,4-Difluorophenyl)-1,1-difluoro-3-(1H-tetrazol-1-yl)-1-(5-(4-(trifluoromethoxy)benzyl)pyridin-2-yl)propan-2-ol] | 80 to 100
13 | OC(Cn1cnnn1)(c1ccc(Cl)cc1F)C(F)(F)c1ccc(Cl)cn1 (stereo not shown) [Compound 26, 2-(4-Chloro-2-fluorophenyl)-1-(5-chloropyridin-2-yl)-1,1-difluoro-3-(1H-tetrazol-1-yl)propan-2-ol] | 80 to 100
